Molecular target: T1, TRPM3 P1090Q mutant (Homo sapiens, UniProt Q9HCF6, P1115Q)
T1 sequence (Q9HCF6 1-1325 isoform Q9HCF6-10 P1090Q): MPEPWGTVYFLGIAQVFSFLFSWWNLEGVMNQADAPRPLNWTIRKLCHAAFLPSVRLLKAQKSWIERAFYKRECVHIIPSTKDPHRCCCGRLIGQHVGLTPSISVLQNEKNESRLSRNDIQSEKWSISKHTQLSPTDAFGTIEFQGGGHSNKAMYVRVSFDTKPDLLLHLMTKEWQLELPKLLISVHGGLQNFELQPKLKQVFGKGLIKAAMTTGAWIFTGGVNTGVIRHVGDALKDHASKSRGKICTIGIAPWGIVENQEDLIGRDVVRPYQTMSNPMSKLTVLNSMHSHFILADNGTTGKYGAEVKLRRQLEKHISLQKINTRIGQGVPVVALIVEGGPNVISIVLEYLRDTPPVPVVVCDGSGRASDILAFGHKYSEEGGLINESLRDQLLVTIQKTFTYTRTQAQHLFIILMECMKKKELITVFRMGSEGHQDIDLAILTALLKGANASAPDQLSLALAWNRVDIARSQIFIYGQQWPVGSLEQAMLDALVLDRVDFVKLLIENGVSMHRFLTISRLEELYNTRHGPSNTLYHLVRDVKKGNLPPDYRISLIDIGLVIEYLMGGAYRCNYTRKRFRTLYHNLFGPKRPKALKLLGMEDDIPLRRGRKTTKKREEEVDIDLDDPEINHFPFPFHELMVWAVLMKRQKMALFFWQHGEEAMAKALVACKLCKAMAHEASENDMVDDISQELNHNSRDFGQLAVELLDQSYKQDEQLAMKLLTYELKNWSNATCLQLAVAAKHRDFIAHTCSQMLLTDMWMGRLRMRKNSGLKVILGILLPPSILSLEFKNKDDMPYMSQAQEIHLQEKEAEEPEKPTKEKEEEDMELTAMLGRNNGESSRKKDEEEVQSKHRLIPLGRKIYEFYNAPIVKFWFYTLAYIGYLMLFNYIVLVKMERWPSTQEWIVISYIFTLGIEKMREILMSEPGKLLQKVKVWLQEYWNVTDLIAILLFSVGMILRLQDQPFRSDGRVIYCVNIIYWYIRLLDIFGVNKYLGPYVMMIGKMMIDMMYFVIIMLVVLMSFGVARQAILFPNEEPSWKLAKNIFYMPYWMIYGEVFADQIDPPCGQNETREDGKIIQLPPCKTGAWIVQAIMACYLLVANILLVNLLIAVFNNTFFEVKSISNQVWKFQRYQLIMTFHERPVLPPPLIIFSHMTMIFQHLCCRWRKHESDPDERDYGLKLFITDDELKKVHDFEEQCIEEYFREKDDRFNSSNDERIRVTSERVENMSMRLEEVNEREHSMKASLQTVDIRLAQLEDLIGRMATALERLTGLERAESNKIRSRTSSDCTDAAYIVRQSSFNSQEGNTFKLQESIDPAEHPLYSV
Experiment: Fura-2-based calcium imaging, HEK293T cells transfected with P1090Q hTRPM3
Assay type: cell-based
Design: expressed in transfected cells; host or cells: HEK293T
Procedure: HEK293T cells ([Graham et al., 1977]) were cultured as described previously ([Vriens et al., 2007]) and used up in passage number 14. HEK293T cells were tested for the lack of mycoplasma and transiently transfected with 2 µg of DNA using TransIT transfection reagent (Mirus) 36–48 hr before the measurements. In case of co-cultures a ratio of 1:1 between hTRPM3-YFP WT and mutants-YFP DNA was used.
All mutants were obtained by the standard PCR overlap extension method using hTRPM3 directly linked to YFP from pCAGGS/IRES-GFP vector ([Vriens et al., 2007]). Accuracy of all mutant sequences was verified by sequencing of the entire DNA constructs.
Changes in intracellular calcium concentration were monitored using ratiometric Fura-2-based fluorimetry. Cells were loaded with 2 µM Fura-2-acetoxymethyl ester (Alexis Biochemicals) for 30 min at 37°C. Fluorescence was measured during alternating illumination at 340 and 380 nm using Eclipse Ti (Nikon) fluorescence microscopy system, and absolute calcium concentration was calculated from the ratio of the fluorescence signals at these two wavelengths (R = F340/F380) as [Ca^2+]=Km × (R-Rmin)/(Rmax-R), where Km, Rmin and Rmax were estimated from in vitro calibration experiments with known calcium concentrations. The bath solution contained (in mM) 138 NaCl, 5.4 KCl, 2 CaCl2, 2 MgCl2, 10 glucose, and 10 HEPES, pH 7.4. […]

Q: With `CCC1(c2ccccc2)C(=O)NCNC1=O` [primidone] as the molecule, how does the “Effect on basal [Ca2+]i” value (primidone 100 µM, isosakuranetin 50 µM) read?
A: reduced [Ca^2+]i

Q: Which “PS concentration giving robust calcium responses (as low as)” value does the source give for pregnenolone sulfate [PS] here?
A: 1 µM
